The text below walks through data of US8648105B2, “Diarylthiohydantoin compounds” (The Regents of the University of California, priority 2006, dated 2014).

Substitutions are numbered along the chain they refer to. “Also recorded” adds a separate entry of the source.

Series [1] addresses T1, androgen receptor (Homo sapiens, UniProt P10275, T878A).
T1 sequence (P10275 1-920 T878A): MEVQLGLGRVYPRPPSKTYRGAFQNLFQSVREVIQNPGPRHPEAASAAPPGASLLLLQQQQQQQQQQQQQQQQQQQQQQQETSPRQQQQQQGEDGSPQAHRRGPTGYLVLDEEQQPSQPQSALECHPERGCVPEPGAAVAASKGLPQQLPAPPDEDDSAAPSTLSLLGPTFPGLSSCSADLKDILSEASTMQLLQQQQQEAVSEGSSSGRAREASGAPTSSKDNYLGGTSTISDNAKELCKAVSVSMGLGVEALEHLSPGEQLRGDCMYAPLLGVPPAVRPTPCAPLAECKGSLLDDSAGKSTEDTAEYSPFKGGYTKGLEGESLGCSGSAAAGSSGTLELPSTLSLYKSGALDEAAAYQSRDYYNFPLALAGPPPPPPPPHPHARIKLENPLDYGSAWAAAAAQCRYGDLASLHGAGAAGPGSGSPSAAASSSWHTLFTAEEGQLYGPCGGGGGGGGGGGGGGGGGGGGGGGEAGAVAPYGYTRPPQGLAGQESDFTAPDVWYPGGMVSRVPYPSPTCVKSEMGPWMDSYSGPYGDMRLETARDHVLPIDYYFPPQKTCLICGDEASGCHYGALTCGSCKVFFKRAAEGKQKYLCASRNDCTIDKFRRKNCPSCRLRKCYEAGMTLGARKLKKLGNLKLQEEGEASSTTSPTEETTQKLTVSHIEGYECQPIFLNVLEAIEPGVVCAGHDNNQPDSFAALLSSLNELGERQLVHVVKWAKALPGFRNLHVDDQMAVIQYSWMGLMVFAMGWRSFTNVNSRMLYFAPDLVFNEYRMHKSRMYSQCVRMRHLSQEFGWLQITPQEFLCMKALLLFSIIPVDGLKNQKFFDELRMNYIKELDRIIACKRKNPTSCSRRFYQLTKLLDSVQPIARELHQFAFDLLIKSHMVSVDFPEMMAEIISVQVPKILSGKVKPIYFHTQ
The settings on record: 10 uM (R1881 1 nM), LNCaP.

The target of series [2] is T2, androgen receptor (AR) and RNA polymerase II (Pol II) (Homo sapiens, UniProt P10275, T878A).
T2 sequence (P10275 1-920 T878A): T1 sequence (P10275 1-920 T878A)
The settings on record: 10 uM, 6 hours, LNCaP.
Experimental: LNCaP (ATCC) cells were plated in full serum. On the day of the experiment, the plate was washed once with 1×PBS and 5% CSS was added for 3 days. […] Each of these compounds was added for 6 hours. In a fourth set of experiments, a control, no additional compound was added (−). 6 hours timepoint was run at 28 cycles.

A further series deals with urogenital tract. As to the kind of experiment: Luciferase transgenic mice with testosterone pellet, urogenital tract weight and photon emission (FIG. 22). Format: in vivo. Conditions: castrated mice with testosterone pellet, 10 mg/kg per day, 14 days. The protocol:
FIG. 22 presents results of an experiment conducted with wild type nontransgenic mice (WT), castrated luciferase transgenic mice (Cast), and non-castrated luciferase transgenic mice (Intact). Data are shown for castrated luciferase transgenic mice treated with an implanted testosterone pellet yielding 12.5 mg per kilogram body weight with a 90 day release period (T/Cast), and data are shown for non-castrated luciferase transgenic mice treated with an implanted testosterone pellet yielding 12.5 mg per kilogram body weight with a 90 day release period (Intact+T). […]. (A) Urogenital tract weight at 14 days. (B) Photon emission rate at 14 days. In all cases, a hormone refractory disease state was not induced.
[…]. Moreover, the higher the dose, the lower the PSA level. […]. The weight and rate of photon emission increased for both intact and castrated mice.

The subject of series [3] is LNCaP hormone sensitive xenograft. Description: LNCaP hormone sensitive xenograft model.
Experimental: Each set included 6 mice. The mice were treated with 10 mg/kg per day.
The target in another series is T3, AR (Homo sapiens, UniProt P10275).
T3 sequence (P10275 1-920): T1 sequence (P10275 1-920 T878A) with A878T
Format: cell-based. Also on record: rows headed: IC50 (nM) Reporter; Fold induction, AR response reporter; agonistic activity on AR response reporter (w). Conditions: 125 nM to 1000 nM, FIG. 3. As to the method: The compounds were subjected to tests using an artificial AR response reporter system in a hormone refractory prostate cancer cell line. […] After two days of incubation, reporter activities were assayed.

Series [4] has as its target T1, androgen receptor. The settings on record: 10 uM, 24 hours, with or without 100 pM R1881, LNCaP.
Another series deals with tumor. As to the kind of experiment: Dose regimens of NC53 on tumor volume and luciferase photon emission (FIGS. 17, 18). The format is in vivo. The settings on record: for tumor size: FIG. 17. The text has this:
FIG. 17 illustrates that under treatment with vehicle solution, tumors continued to increase in size.

A short description of a further series: LogP. The format is physicochemical.

For `CNC(=O)c1ccc(N2C(=S)N(c3ccc(C#N)c(C(F)(F)F)c3)C(=O)C23CCC3)cc1F` [NC53, N-methyl-4-[7-(4-cyano-3-trifluoromethylphenyl)-8-oxo-6-thioxo-5,7-diaza-spiro[3.4]oct-5-yl]-2-fluorobenzamide], on androgen receptor [1], the “androgen receptor nuclear translocation” value is listed as “inhibited androgen receptor nuclear translocation”. In series [2], the “AR and Pol II recruitment to PSA enhancer and PSA promoter” value is “prevented androgen receptor (AR) recruitment and RNA polymerase II (Pol II) recruitment to PSA enhancer and to PSA promoter”. In addition, the “urogenital tract weight and photon emission” value in the series with urogenital tract is “decrease in weight and photon emission”. In addition, the “rate of tumor growth (tumor volume)” value in series [3] (10 mg/kg per day, FIG. 6) is listed as “slower than mice treated with vehicle solution”. Moreover, the PSA levels result in series [3] (FIG. 16, relative to vehicle solution) is “PSA levels decreased”. On AR, the “luciferase activity in LNCaP-AR cells” value is given as “acted to reduce luciferase activity”. The “androgen receptor protein level” value on androgen receptor [4] was “destabilized androgen receptor proteins; also recorded: androgen receptor protein is degraded”. Besides, the tumor size result with tumor (1 mg per kg body weight per day) was “the rate of tumor increase decreased, and the size of the tumor appeared to be stabilizing after about 17 days”; with tumor (10 mg per kg body weight per day), “tumor size decreased with time”. Moreover, the “photon emission associated with luciferase activity” value with tumor (10 mg per kg body weight per day, day 17 vs day 0, FIG. 18) is on record as “photon emission associated with luciferase activity decreased”. The logP (commonly a log measure of how a compound divides between an organic and an aqueous phase) in the series “LogP” turned out to be 3.2.
